In patent US11279079B2, “Cell electrochemical sensor based on 3D printing technology and application thereof” (Jiangnan University, priority 2020, dated 2022):

Tests used:
[1] = test system: lung adenocarcinoma epithelial cells A549; assay: Cell electrochemical sensor (3D-printed A549/carbon nanofiber/GelMA on screen-printed carbon electrode), EIS cytotoxicity and combination index evaluation; format: cell-based, human; conditions: for IC50 value measured by the EIS method: A549 cell sensor of example 1, 24 hours toxin stimulation, single toxin or combined effect; for impedance value of the cell sensor with increasing dose: concentration range of 0.1-5 μg/mL, 24 hours
Method: In an embodiment of the disclosure, the cell sensor needs to be incubated before application, and specific operations comprise: dropping a DMEM cell culture medium at a working electrode of a screen-printed carbon electrode to ensure that the culture medium can cover a cell/carbon nanofiber/GelMA complex on the working electrode to provide cells with nutrients needed for growth, and then placing the working electrode in an incubator with the carbon dioxide concentration of 5% and the humidity of 95% for incubation at 37° C. for 6-12 hours; after incubation, removing the original culture medium on the working electrode, diluting toxin standard substances with the DMEM cell culture medium into gradient concentration solutions, dropping the gradient concentration solutions on the working electrode printed with cells, and then carrying out electrochemical detection after placing the working electrode in the incubator for effect for 24 hours.
In an embodiment of the disclosure, the method uses a modified screen-printed carbon electrode as a sensing interface, a PET material is used as a substrate, the working electrode is composed of carbon, the reference electrode is composed of silver/silver chloride, the counter electrode is composed of carbon, electrochemical detection adopts electrochemical impedance spectroscopy (EIS) to test electrical signal changes of cells stimulated by toxins, the initial potential is 0.2 V, and the frequency range is 1 Hz-10^5 Hz.
In an embodiment of the disclosure, the electrochemical AC impedance method (EIS) measures the signals obtained by the electrochemical sensor stimulated by different concentrations of toxins, the impedance value is calculated by fitting the equivalent circuit with Zview software, the cell viability inhibition rates of different concentrations of toxins are calculated, and the calculation method is as follows: […]
(1) Drug stimulation: An original culture medium on a working electrode is removed, toxin standard substances are diluted with a DMEM cell culture medium into gradient concentration solutions, and then 150 μL of DON toxin solutions in the concentration range of 0.1, 0.2, 0.5, 1, 2 and 5 μg/mL, 150 μL of 15-ADON toxin solutions in the concentration range of 0.1, 0.2, 0.5, 1, 2 and 5 μg/mL and 150 μL of DON+15-ADON toxin solutions in the concentration range of 0.1+0.1, 0.2+0.2, 0.5+0.5, 1+1, 2+2 and 5+5 μg/mL are taken and dropped on the working electrode printed with cells respectively, the working electrode is placed in an incubator for effect for 24 hours, and corresponding impedance values are measured. […]

[2] = pigs, in vivo; cited from earlier work

SMILES | IC50 value measured by the EIS method [1] | impedance value of the cell sensor with increasing dose [1] | conversion into DON in blood [2]
CC(=O)OC[C@]12[C@H](O)C(=O)C(C)=C[C@H]1O[C@@H]1[C@H](O)C[C@@]2(C)[C@]12CO2 [15-ADON, 15-acetyl-deoxynivalenol] | 1.2560 µg/mL | gradually reduced | 
CC1=C[C@H]2O[C@@H]3[C@H](O)C[C@](C)([C@@]2(CO)[C@H](O)C1=O)[C@]31CO1 [DON, deoxynivalenol] | 0.9281 µg/mL | gradually reduced | 
CC(=O)O[C@@H]1C[C@]2(C)[C@@]3(CO)[C@H](O)C(=O)C(C)=C[C@H]3O[C@H]1[C@@]21CO1 [3-ADON] |  |  | quickly converted into DON
